The results in this text go back to ChEMBL document CHEMBL1201862, “PubChem BioAssay data set” (2004).

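How tested: cells in 96-well plates exposed to compound for 48 hours at five concentrations. GI50 = concentration required for 50% inhibition of growth.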 Active and inactive are the calls of the source. Rule as the data show it: active = GI50 up to about 1.1 µM and inactive = higher.

Test systems include UO-31; PC-3; HOP-92; T47D; OVCAR-8; SF-268; CCRF-CEM; SNB-75; DU-145; SK-MEL-5; M14; OVCAR-3; 786-0; TK-10; MOLT-4; A549; IGROV-1; HCT-116; MDA-MB-435; Hs-578T.
Experiment in all cases: NCI-60 cell line screen, 48 h

`NC1=NCN(C2OC(CO)C(O)C2O)C(=O)N1` (stereo not given): the GI50 in the assay on UO-31 was 145 µM (inactive); in the assay on PC-3, 342 µM (inactive); in the assay with HOP-92 it was 391 µM (inactive); in the assay with T47D it was 15 µM (inactive); in the assay with OVCAR-8 it was 415 µM (inactive); in the assay on SF-268, 15.1 µM (inactive). Besides, the GI50 is 7.19 µM (inactive) in the assay with CCRF-CEM; 22.5 µM (inactive) in the assay with SNB-75; 148 µM (inactive) in the assay with DU-145; 42 µM (inactive) with SK-MEL-5; 5.71 µM (inactive) in the assay with M14; 38.6 µM (inactive) in the assay on OVCAR-3. For the same molecule, the GI50 in the assay on 786-0 was 4.52 µM (inactive); in the assay with TK-10, 11.4 µM (inactive); with MOLT-4, 5.21 µM (inactive); with A549, 18.5 µM (inactive); in the assay with IGROV-1 it was 5.74 µM (inactive); with HCT-116, 16.6 µM (inactive). The GI50 was 6.64 µM (inactive) in the assay on MDA-MB-435 and 23.4 µM (inactive) in the assay on Hs-578T.

For `Nn1c(=O)[nH]c2ncn(Cc3ccccc3)c2c1=O`, the GI50 in the assay on UO-31, with PC-3, in the assay with HOP-92, with T47D, in the assay with OVCAR-8 and in the assay with SF-268 was > 100 µM (inactive) throughout. Further, the GI50 in the assay on CCRF-CEM, in the assay with SNB-75, in the assay on DU-145, in the assay with SK-MEL-5, in the assay with M14 and with OVCAR-3 was > 100 µM (inactive) in each case. Besides, the GI50 in the assay with 786-0, with TK-10, with MOLT-4, in the assay with A549, in the assay on IGROV-1 and with HCT-116 was > 100 µM (inactive) in each case. Moreover, the GI50 with MDA-MB-435 and in the assay on Hs-578T was > 100 µM (inactive) in each case.

As for `CC/C=C/c1cc2c(cc1O)CCC1C2CC[C@@]2(C)C1CC[C@@H]2O` (stereo not given in full), the GI50 was 6.03 µM (inactive) in the assay with UO-31; 3.49 µM (inactive) with PC-3; 12 µM (inactive) with HOP-92; 2.86 µM (inactive) in the assay on T47D; 4.31 µM (inactive) in the assay on OVCAR-8; 10.2 µM (inactive) with SF-268. In addition, the GI50 is 1.73 µM (inactive) in the assay with CCRF-CEM; 1.44 µM (inactive) in the assay on SNB-75; 2.76 µM (inactive) in the assay with DU-145; 1.56 µM (inactive) in the assay with SK-MEL-5; 1.17 µM (inactive) in the assay with M14; 0.265 µM (active) in the assay on OVCAR-3. For the same molecule, the GI50 in the assay on 786-0 is 2.34 µM (inactive); in the assay with TK-10, 1.03 µM (active); in the assay with MOLT-4 it was 1.97 µM (inactive); in the assay on A549 it was 4.12 µM (inactive); with IGROV-1, 4.37 µM (inactive); in the assay on HCT-116, 1.02 µM (active). In addition, the GI50 with MDA-MB-435 was 0.246 µM (active); in the assay on Hs-578T it was 1.65 µM (inactive).

For the molecule `COc1ccc(N)c(C(O)CCNC(C)=O)c1` (stereo not given), the GI50 with UO-31, in the assay on PC-3, in the assay on HOP-92, in the assay with T47D, with OVCAR-8 and in the assay with SF-268 was > 100 µM (inactive) each time. Moreover, the GI50 with CCRF-CEM, in the assay on SNB-75, in the assay on DU-145, in the assay with SK-MEL-5, in the assay with M14 and in the assay on OVCAR-3 was > 100 µM (inactive) in each case. Moreover, the GI50 in the assay on 786-0, in the assay on TK-10, in the assay on MOLT-4, with A549, in the assay with IGROV-1 and in the assay on HCT-116 was > 100 µM (inactive) in each case. The GI50 with MDA-MB-435 and in the assay on Hs-578T was > 100 µM (inactive) in each case.

For the molecule `c1ccc(C[n+]2cccc(-c3cc4ccccc4[nH]3)c2)cc1`, the GI50 was > 100 µM (inactive) in the assay on UO-31; 39.2 µM (inactive) in the assay on PC-3; 16.4 µM (inactive) in the assay on HOP-92; 23.6 µM (inactive) with T47D; 38.3 µM (inactive) in the assay on OVCAR-8; 17.6 µM (inactive) in the assay with SF-268. Further, the GI50 is 19.9 µM (inactive) in the assay with CCRF-CEM; 29.4 µM (inactive) with SNB-75; 47.4 µM (inactive) in the assay on DU-145; 10.6 µM (inactive) with SK-MEL-5; 21.7 µM (inactive) in the assay with M14; 31 µM (inactive) in the assay on OVCAR-3. Moreover, the GI50 with 786-0 is 50.1 µM (inactive); in the assay with TK-10 it was 32.7 µM (inactive); in the assay with MOLT-4 it was 21.5 µM (inactive); in the assay with A549, 91.2 µM (inactive); with IGROV-1 it was 19.4 µM (inactive); in the assay on HCT-116 it was 32.5 µM (inactive). Also, the figures for the GI50 in the assay on MDA-MB-435 and in the assay on Hs-578T were 18.5 µM (inactive) and 20.2 µM (inactive), respectively.

In the case of `Nc1cc2[nH]cnc2c(=O)[nH]1` [DEZAGUANINE], the GI50 is 32.3 µM (inactive) in the assay with UO-31; 9.29 µM (inactive) in the assay on PC-3; 77.8 µM (inactive) in the assay with HOP-92; 89.1 µM (inactive) in the assay with T47D; 40.2 µM (inactive) in the assay on OVCAR-8; 15 µM (inactive) with SF-268. For the same molecule, the GI50 was 7.93 µM (inactive) in the assay with CCRF-CEM; 90.8 µM (inactive) in the assay on SNB-75; 5.43 µM (inactive) with DU-145; 63.7 µM (inactive) in the assay with SK-MEL-5; 45.6 µM (inactive) in the assay on M14; 11 µM (inactive) in the assay with OVCAR-3. The GI50 in the assay with 786-0 is 19.4 µM (inactive); in the assay on TK-10, 13.9 µM (inactive); in the assay on MOLT-4, 6.28 µM (inactive); in the assay on A549, 24.5 µM (inactive); with IGROV-1, 23.1 µM (inactive); in the assay on HCT-116, 16.6 µM (inactive). Also, the values for the GI50 in the assay on MDA-MB-435 and with Hs-578T were 14.3 µM (inactive) and > 196 µM (inactive), respectively.

With `CN1C(=O)CC2(C)c3cc(O)ccc3N(C)C12` (stereo not given), the GI50 with UO-31 is > 71.8 µM (inactive); in the assay with PC-3, 41.5 µM (inactive); in the assay on HOP-92 it was 56.9 µM (inactive); in the assay with T47D it was 31.8 µM (inactive); with OVCAR-8 it was 30.8 µM (inactive); with SF-268, 27 µM (inactive). For the same molecule, the GI50 in the assay on CCRF-CEM was 13.2 µM (inactive); in the assay on SNB-75, 30.8 µM (inactive); in the assay with DU-145 it was > 40.4 µM (inactive); in the assay with SK-MEL-5, 22.5 µM (inactive); with M14, 27.2 µM (inactive); with OVCAR-3, 19.6 µM (inactive). Moreover, the GI50 with 786-0 is 15 µM (inactive); with TK-10, > 90.4 µM (inactive); in the assay with MOLT-4, 19.3 µM (inactive); in the assay with A549, > 68.5 µM (inactive); with IGROV-1 it was 46.6 µM (inactive); with HCT-116, 19.9 µM (inactive). The GI50 with MDA-MB-435 was 13.6 µM (inactive); with Hs-578T it was > 48.9 µM (inactive).
